Reference: ChEMBL document CHEMBL3045179, “Mode of Action and QSAR Studies of Nitrification Inhibitors” (J Pestic Sci, 1997)

Assays:
[1] = test system: Nitrosomonas sp. TK794; assay: Inhibition of Nitrosomonas sp. TK794-mediated nitrification activity assessed as nitrite nitrogen formation at 5 mg/kg after 7 to 10 days by Griess-Ilosvay method relative to control; format: functional
[2] = test system: Nitrosomonas europaea; assay: Inhibition of Nitrosomonas europaea ATCC 25978-mediated nitrification activity assessed as nitrite nitrogen formation after 7 to 10 days by Griess-Ilosvay method; format: functional, organism-based; conditions: read-out: pI50 (converted)
[3] = test system: Nitrosomonas europaea; assay: Inhibition of Nitrosomonas europaea ATCC 25978-mediated nitrification activity assessed as nitrite nitrogen formation at 1 mg/kg after 7 to 10 days by Griess-Ilosvay method relative to control; format: functional; conditions: values are per cent of control
[4] = Octanol-water partition coefficient, log P of the compound; format: physicochemical
[5] = test system: Nitrosomonas europaea; assay: Inhibition of Nitrosomonas europaea ATCC 25978-mediated nitrification activity assessed as nitrite nitrogen formation at 0.1 mg/kg after 7 to 10 days by Griess-Ilosvay method relative to control; format: functional; conditions: values are per cent of control
[6] = test system: Nitrosomonas europaea; assay: Inhibition of Nitrosomonas europaea ATCC 25978-mediated nitrification activity assessed as nitrite nitrogen formation at 5 mg/kg after 7 to 10 days by Griess-Ilosvay method relative to control; format: functional
[7] = test system: Nitrosomonas sp. TK794; assay: Inhibition of Nitrosomonas sp. TK794-mediated nitrification activity assessed as nitrite nitrogen formation at 1 mg/kg after 7 to 10 days by Griess-Ilosvay method relative to control; format: functional
[8] = test system: Nitrosomonas europaea; assay: Inhibition of Nitrosomonas europaea ATCC 25978-mediated nitrification activity assessed as nitrite nitrogen formation at 0.5 mg/kg after 7 to 10 days by Griess-Ilosvay method relative to control; format: functional; conditions: values are per cent of control
[9] = test system: Nitrosomonas sp. TK794; assay: Inhibition of Nitrosomonas sp. TK794-mediated nitrification activity assessed as nitrite nitrogen formation at 0.5 mg/kg after 7 to 10 days by Griess-Ilosvay method relative to control; format: functional
[10] = test system: Nitrosomonas sp. TK794; assay: Inhibition of Nitrosomonas sp. TK794-mediated nitrification activity assessed as nitrite nitrogen formation at 25 mg/kg after 7 to 10 days by Griess-Ilosvay method relative to control; format: functional
[11] = test system: Nitrosomonas europaea; assay: Inhibition of Nitrosomonas europaea ATCC 25978-mediated nitrification activity assessed as nitrite nitrogen formation at 400 mg/kg after 7 to 10 days by Griess-Ilosvay method relative to control; format: functional
[12] = test system: Nitrosomonas sp. TK794; assay: Inhibition of Nitrosomonas sp. TK794-mediated nitrification activity assessed as nitrite nitrogen formation at 500 mg/kg after 7 to 10 days by Griess-Ilosvay method relative to control; format: functional
[13] = test system: Nitrosomonas europaea; assay: Inhibition of Nitrosomonas europaea ATCC 25978-mediated nitrification activity assessed as nitrite nitrogen formation at 10 mg/kg after 7 to 10 days by Griess-Ilosvay method relative to control; format: functional

| Compound | IC50 [2] [nM] | logP ([4]; read-out: logP) | residual activity at 0.1 mg/kg [5] [%] | other results |
| --- | --- | --- | --- | --- |
| CCCOc1nc(-c2ccccc2)nc(C(Cl)(Cl)Cl)n1 | 3390 | 6.22 | – | inhibition in vivo at 5 mg/kg [1]: 47.9%; residual activity at 1 mg/kg [3]: 48.5% |
| CCCCCCCCCCCCNc1nc(C(Cl)(Cl)Cl)nc(C(Cl)(Cl)Cl)n1 | 5750 | 8.96 | – | inhibition in vivo at 5 mg/kg [1]: 55.2%; inhibition in vivo at 5 mg/kg [6]: 50% |
| CCOc1nc(SC)nc(C(Cl)(Cl)Cl)n1 | 676 | 4.64 | 64.8 | inhibition in vivo at 1 mg/kg [7]: 60% |
| CCCNc1nc(C(Cl)(Cl)Cl)nc(C(Cl)(Cl)Cl)n1 | 219 | 4.19 | 60 | – |
| CSc1nc(C(Cl)(Cl)Cl)nc(C(Cl)(Cl)Cl)n1 | 186 | 4.21 | – | residual activity at 0.5 mg/kg [8]: 18.7%; inhibition in vivo at 0.5 mg/kg [9]: 41.3% |
| COc1nc(-c2ccccc2)nc(C(Cl)(Cl)Cl)n1 | 229 | 5.17 | 31.4 | inhibition in vivo at 1 mg/kg [7]: 39% |
| ClC(Cl)(Cl)c1nc(C(Cl)(Cl)Cl)nc(C(Cl)(Cl)Cl)n1 | – | 3.71 | – | inhibition in vivo at 25 mg/kg [10]: 50% |
| CCCCCCNc1nc(C(Cl)(Cl)Cl)nc(C(Cl)(Cl)Cl)n1 | 1660 | 5.79 | – | residual activity at 1 mg/kg [3]: 42.7% |
| CCCCCCCCCCCCCCCCNc1nc(C)nc(C(Cl)(Cl)Cl)n1 | – | – | – | logP [4]: 11.4; inhibition in vivo at 400 mg/kg [11]: 45.2%; inhibition in vivo at 500 mg/kg [12]: 81% |
| CCOc1nc(C(Cl)(Cl)Cl)nc(C(Cl)(Cl)Cl)n1 | 437 | 4.14 | – | residual activity at 1 mg/kg [3]: 27.3%; inhibition in vivo at 1 mg/kg [7]: 25.8% |
| CNc1nc(-c2ccccc2)nc(C(Cl)(Cl)Cl)n1 | 372 | 4.7 | 53.2 | inhibition in vivo at 0.5 mg/kg [9]: 57.1% |
| Cc1nc(Oc2ccc(Cl)cc2)nc(C(Cl)(Cl)Cl)n1 | 741 | 5.94 | – | residual activity at 1 mg/kg [3]: 36.1%; inhibition in vivo at 1 mg/kg [7]: 47% |
| CCCCCCCCCCNc1nc(C(Cl)(Cl)Cl)nc(C(Cl)(Cl)Cl)n1 | 10500 | 7.9 | – | inhibition in vivo at 10 mg/kg [13]: 36.8% |
| CN(C)c1nc(C(Cl)(Cl)Cl)nc(C(Cl)(Cl)Cl)n1 | – | 3.7 | – | inhibition in vivo at 0.5 mg/kg [9]: 60.5% |
| CCCCCNc1nc(C(Cl)(Cl)Cl)nc(C(Cl)(Cl)Cl)n1 | 1230 | 5.25 | 67.1 | – |
| CCOc1nc(-c2ccccc2)nc(C(Cl)(Cl)Cl)n1 | 1050 | 5.7 | – | residual activity at 1 mg/kg [3]: 31.4%; inhibition in vivo at 1 mg/kg [7]: 51.2% |
| Cc1nc(N)nc(C(Cl)(Cl)Cl)n1 | – | 2.82 | – | inhibition in vivo at 5 mg/kg [1]: 42.1% |

Further lines, with some results ahead:

| IC50 [2] [nM] | logP ([4]; read-out: logP) | Compound | residual activity at 0.1 mg/kg [5] [%] | other results |
| --- | --- | --- | --- | --- |
| 1510 | 5.08 | CCCCNc1nc(C)nc(C(Cl)(Cl)Cl)n1 | 79.5 | – |
| 380 | 6.66 | CCCCCCCNc1nc(C)nc(C(Cl)(Cl)Cl)n1 | 44.9 | – |
| – | 2.45 | Nc1nc(C(Cl)(Cl)Cl)nc(C(Cl)(Cl)Cl)n1 | – | inhibition in vivo at 1 mg/kg [7]: 56.2% |
| 417 | 6.13 | CCCCCCNc1nc(C)nc(C(Cl)(Cl)Cl)n1 | 54.5 | – |
| 1200 | 4.4 | CCCCc1nc(N)nc(C(Cl)(Cl)Cl)n1 | – | residual activity at 1 mg/kg [3]: 29%; inhibition in vivo at 1 mg/kg [7]: 39.7% |
| 2000 | 4.56 | CCCNc1nc(C)nc(C(Cl)(Cl)Cl)n1 | – | residual activity at 1 mg/kg [3]: 42.9% |
| 977 | 4.72 | CCCCNc1nc(C(Cl)(Cl)Cl)nc(C(Cl)(Cl)Cl)n1 | 72.4 | – |
| 589 | 5.65 | CCCCN(C)c1nc(C)nc(C(Cl)(Cl)Cl)n1 | 59.5 | – |
| 1260 | 2.96 | CSc1nc(N)nc(C(Cl)(Cl)Cl)n1 | – | inhibition in vivo at 5 mg/kg [1]: 27%; residual activity at 0.5 mg/kg [8]: 65.5% |
